Starred links: 1 amine or outer side, 2 acyl side, 3 side chain; linkers in the order of their positions; H or OH if unused. Non-standard residues stand in square brackets, D forms with d. Residues, ends and D or L forms follow the SMILES beside them. Groups on a side chain read outwards from the residue. *: point of attachment. C17 diacid = O=C(O)CCCCCCCCCCCCCCCC(=O)*; γGlu = O=C(O)[C@H](CCC(=O)[*:2])N[*:1]; NMeY = CN[C@@H](Cc1ccc(O)cc1)C(=O)O; AEEA = NCCOCCOCC(=O)O; Aib = CC(C)(N)C(=O)O
Experiment: physchem
Method in brief: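 3 mg of peptide treated with 100 μL portions of 200 mM phosphate buffer pH 7.4, sonicating/vortexing up to 1 min, with further buffer added until fully dissolved. Solubility then quantified by HPLC.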

Row | Compound | solubility (pH 7.4) | solubility (pH 7.4, aqueous buffer)
1 | CC[C@H](C)[C@H](NC(=O)[C@H](CO)NC(=O)[C@H](Cc1ccc(O)cc1)NC(=O)[C@H](CC(=O)O)NC(=O)[C@H](CO)NC(=O)[C@@H](NC(=O)[C@H](Cc1ccccc1)NC(=O)[C@@H](NC(=O)CNC(=O)[C@H](CCC(=O)O)NC(=O)C(C)(C)NC(=O)[C@H](Cc1ccc(O)cc1)NC)[C@@H](C)O)[C@@H](C)CC)C(=O)N[C@@H](C)C(=O)N[C@@H](CC(C)C)C(=O)N[C@@H](CC(=O)O)C(=O)N[C@@H](CCCNC(=N)N)C(=O)NC(C)(C)C(=O)N[C@@H](C)C(=O)N[C@@H](CCC(N)=O)C(=O)NC(C)(C)C(=O)N[C@@H](CCCCNC(=O)COCCOCCNC(=O)COCCOCCNC(=O)CC[C@H](NC(=O)CC[C@H](NC(=O)CCCCCCCCCCCCCCCC(=O)O)C(=O)O)C(=O)O)C(=O)N[C@@H](Cc1ccccc1)C(=O)N[C@H](C(=O)N[C@@H](CC(N)=O)C(=O)N[C@@H](Cc1c[nH]c2ccccc12)C(=O)N[C@@H](CC(C)C)C(=O)N[C@@H](CC(C)C)C(=O)N[C@@H](C)C(=O)N[C@@H](CCC(N)=O)C(=O)N[C@@H](CO)C(=O)N1CCC[C@H]1C(=O)NCC(=O)O)C(C)C [Compound 125] (H-[NMeY][Aib]EGTFISDYSIALDR[Aib]AQ[Aib]K([AEEA-AEEA-γGlu-γGlu-C17 diacid])FVNWLLAQSPG-OH) | ≥ 15 mg/mL | ≥ 30 mg/mL
2 | CC[C@H](C)[C@H](NC(=O)[C@H](Cc1ccccc1)NC(=O)[C@@H](NC(=O)CNC(=O)[C@H](CCC(=O)O)NC(=O)C(C)(C)NC(=O)[C@H](Cc1ccc(O)cc1)NC)[C@@H](C)O)C(=O)N[C@@H](CO)C(=O)N[C@@H](CC(=O)O)C(=O)N[C@@H](Cc1ccc(O)cc1)C(=O)N[C@@H](CO)C(=O)N[C@H](C(=O)NC(C)(C)C(=O)N[C@@H](CC(C)C)C(=O)N[C@@H](CC(=O)O)C(=O)N[C@@H](CCCNC(=N)N)C(=O)NC(C)(C)C(=O)N[C@@H](C)C(=O)N[C@@H](CCC(N)=O)C(=O)NC(C)(C)C(=O)N[C@@H](CCCCNC(=O)COCCOCCNC(=O)COCCOCCNC(=O)CC[C@H](NC(=O)CC[C@H](NC(=O)CCCCCCCCCCCCCCCC(=O)O)C(=O)O)C(=O)O)C(=O)N[C@@H](Cc1ccccc1)C(=O)N[C@H](C(=O)N[C@@H](CC(N)=O)C(=O)N[C@@H](Cc1c[nH]c2ccccc12)C(=O)N[C@@H](CC(C)C)C(=O)N[C@@H](CC(C)C)C(=O)N[C@@H](C)C(=O)N[C@@H](CCC(N)=O)C(=O)N[C@@H](CO)C(=O)N1CCC[C@H]1C(=O)NCC(=O)O)C(C)C)[C@@H](C)CC [Compound 126] (H-[NMeY][Aib]EGTFISDYSI[Aib]LDR[Aib]AQ[Aib]K([AEEA-AEEA-γGlu-γGlu-C17 diacid])FVNWLLAQSPG-OH) | ≥ 15 mg/mL | ≥ 30 mg/mL
3 | CC[C@H](C)[C@H](NC(=O)[C@H](Cc1ccccc1)NC(=O)[C@@H](NC(=O)CNC(=O)[C@H](CCC(=O)O)NC(=O)C(C)(C)NC(=O)[C@H](Cc1ccc(O)cc1)NC)[C@@H](C)O)C(=O)N[C@@H](CO)C(=O)N[C@@H](CC(=O)O)C(=O)N[C@@H](Cc1ccc(O)cc1)C(=O)N[C@@H](CO)C(=O)N[C@H](C(=O)NC(C)(C)C(=O)N[C@@H](CC(C)C)C(=O)N[C@@H](CC(=O)O)C(=O)N[C@@H](CCCNC(=N)N)C(=O)NC(C)(C)C(=O)N[C@@H](C)C(=O)N[C@@H](CCC(N)=O)C(=O)NC(C)(C)C(=O)N[C@@H](CCCCNC(=O)COCCOCCNC(=O)COCCOCCNC(=O)CC[C@H](NC(=O)CC[C@H](NC(=O)CCCCCCCCCCCCCCCC(=O)O)C(=O)O)C(=O)O)C(=O)N[C@@H](Cc1ccccc1)C(=O)N[C@H](C(=O)N[C@@H](CC(N)=O)C(=O)N[C@@H](Cc1c[nH]c2ccccc12)C(=O)N[C@@H](CC(C)C)C(=O)N[C@@H](CC(C)C)C(=O)N[C@@H](C)C(=O)N[C@@H](CCC(N)=O)C(=O)N[C@@H](CCCNC(=N)N)C(=O)NCC(=O)O)C(C)C)[C@@H](C)CC [Compound 127] (H-[NMeY][Aib]EGTFISDYSI[Aib]LDR[Aib]AQ[Aib]K([AEEA-AEEA-γGlu-γGlu-C17 diacid])FVNWLLAQRG-OH) | ≥ 15 mg/mL | ≥ 30 mg/mL
4 | CC[C@H](C)[C@H](NC(=O)[C@H](CCCCN)NC(=O)[C@H](CC(=O)O)NC(=O)[C@H](CC(C)C)NC(=O)C(C)(C)NC(=O)[C@@H](NC(=O)[C@H](CO)NC(=O)[C@H](Cc1ccc(O)cc1)NC(=O)[C@H](CC(=O)O)NC(=O)[C@H](CO)NC(=O)[C@@H](NC(=O)[C@H](Cc1ccccc1)NC(=O)[C@@H](NC(=O)CNC(=O)[C@H](CCC(=O)O)NC(=O)C(C)(C)NC(=O)[C@@H](N)Cc1ccc(O)cc1)[C@@H](C)O)[C@@H](C)CC)[C@@H](C)CC)C(=O)N[C@@H](C)C(=O)N[C@@H](CCC(N)=O)C(=O)N[C@@H](CCC(N)=O)C(=O)N[C@@H](CCCCNC(=O)COCCOCCNC(=O)COCCOCCNC(=O)CC[C@H](NC(=O)CC[C@H](NC(=O)CCCCCCCCCCCCCCCC(=O)O)C(=O)O)C(=O)O)C(=O)N[C@@H](Cc1ccccc1)C(=O)N[C@H](C(=O)N[C@@H](CCC(=O)O)C(=O)N[C@@H](Cc1c[nH]c2ccccc12)C(=O)N[C@@H](CC(C)C)C(=O)N[C@@H](CC(C)C)C(=O)N[C@@H](C)C(=O)N[C@@H](CCC(N)=O)C(=O)N[C@@H](CCCNC(=N)N)C(=O)NCC(=O)O)C(C)C [Compound 129] (H-Y[Aib]EGTFISDYSI[Aib]LDKIAQQK([AEEA-AEEA-γGlu-γGlu-C17 diacid])FVEWLLAQRG-OH) | ≥ 15 mg/mL | ≥ 30 mg/mL
5 | CC[C@H](C)[C@H](NC(=O)[C@H](CO)NC(=O)[C@H](Cc1ccc(O)cc1)NC(=O)[C@H](CC(=O)O)NC(=O)[C@H](CO)NC(=O)[C@@H](NC(=O)[C@H](Cc1ccccc1)NC(=O)[C@@H](NC(=O)CNC(=O)[C@H](CCC(=O)O)NC(=O)C(C)(C)NC(=O)[C@@H](N)Cc1ccc(O)cc1)[C@@H](C)O)[C@@H](C)CC)C(=O)N[C@@H](C)C(=O)N[C@@H](CC(C)C)C(=O)N[C@@H](CC(=O)O)C(=O)N[C@@H](CCCCN)C(=O)NC(C)(C)C(=O)N[C@@H](C)C(=O)N[C@@H](CCC(N)=O)C(=O)N[C@@H](CCC(N)=O)C(=O)N[C@@H](CCCCNC(=O)COCCOCCNC(=O)COCCOCCNC(=O)CC[C@H](NC(=O)CC[C@H](NC(=O)CCCCCCCCCCCCCCCC(=O)O)C(=O)O)C(=O)O)C(=O)N[C@@H](Cc1ccccc1)C(=O)N[C@H](C(=O)N[C@@H](CCC(=O)O)C(=O)N[C@@H](Cc1c[nH]c2ccccc12)C(=O)N[C@@H](CC(C)C)C(=O)N[C@@H](CC(C)C)C(=O)N[C@@H](C)C(=O)N[C@@H](CCC(N)=O)C(=O)N[C@@H](CCCNC(=N)N)C(=O)NCC(=O)O)C(C)C [Compound 130] (H-Y[Aib]EGTFISDYSIALDK[Aib]AQQK([AEEA-AEEA-γGlu-γGlu-C17 diacid])FVEWLLAQRG-OH) | ≥ 15 mg/mL | ≥ 30 mg/mL
